{
  "source": "patent US20210215674A1",
  "about": "“COMPOSITIONS AND METHODS FOR SCREENING COMPOUNDS FOR CARDIAC SIDE EFFECTS” (Arizona Board of Regents on Behalf of the University of …, priority 2018, published 2021)",
  "tested_on": "hiPSC-CM / fibroblast graft (bioengineered tissue)",
  "test": "ECG recording of bioengineered tissue on multi-electrode array with pharmacological perturbations",
  "assay_type": "cell-based, human",
  "conditions": "for change of heart rate of the construct: continuous ECG recording, FIG. 8; for change of QT interval / change of R-R interval (heart rate-equivalent): single bioengineered tissue on multi-electrode array vs baseline, FIG. 10",
  "description": "Methods of graft engineering: Human dermal fibroblasts were cultured into a vicryl (polygalctin 910) knitted mesh until the mesh was fully confluent with fibroblasts. Human induced pluripotent stem cell derived cardiomyocytes (hiPSC-CMs) were seeded onto the fibroblasts grafts using centrifugal force (1300 rpms for 5 min). All cell cultures were maintained at […] and 5% CO2 with media changed every 24-48 hrs. Fibroblasts were maintained with 10% FBS in DMEM, hiPSC-CMs were maintained with RPMI+B27. Grafts were either used fresh or after cryopreservation. Fresh grafts were assayed 48 hrs after hiPSC-CM engraftment. Cryopreserved grafts were assayed 2 days post reconstitution. Axion System Methods: […] diameter circular grafts were transferred to the Axion culture well, hiPSC-CM side down and three small 5 mm×1 mm weights were placed on the surface to enhance contact with the electrodes. Cultures were maintained at 37° C. and 5% CO2. Data were obtained at baseline, and then with pharmacological perturbations. NeuroNexus Methods: 1.6 cm diameter circular grafts were placed hiPSC-CM side down on the recording array. Cultures were maintained at 37° C. but no control was available for CO2. […] To enhance contact, the volume of medium in the culture well was reduced from 1.5 ml to 0.25-0.5 ml. Data were obtained at baseline, and then with pharmacological perturbations.",
  "data": [
    {"compound": "CC(C)NCC(O)c1ccc(O)c(O)c1", "note": "(stereo not drawn) [Isoproterenol]", "values": [
      {"measurement": "change of heart rate of the construct", "result": "increase"},
      {"measurement": "change of QT interval", "result": "decrease"},
      {"measurement": "change of R-R interval (heart rate-equivalent)", "result": "decrease"}
    ]},
    {"compound": "CC(C)(C)NC[C@H](O)COc1nsnc1N1CCOCC1", "note": "[Timolol]", "values": [
      {"measurement": "change of heart rate of the construct", "result": "decrease"},
      {"measurement": "change of QT interval", "result": "increase"},
      {"measurement": "change of R-R interval (heart rate-equivalent)", "result": "increase"}
    ]}
  ]
}
